Reference: US20040259806A1 (priority 2001, published 2004)

Assays:
tuberculosis [1] = test: SCV-07 therapy of a patient with infiltrative tuberculosis (Example 1); type: in vivo, human; details: after SCV-07 0.1 mg daily for 5 days
Experimental: A patient, was admitted to the hospital with infiltrative tuberculosis with destruction and dissemination in the upper lobe of the left lung. […] Lymphopenia (18%) and increased ESR (25 mm/h) were present in the blood count. […] Aggressive traditional antituberculosis therapy was carried out including isoniazid at 600 mg/day intravenously, pyrazinamid at 1500 mg/day per os, rifampicin at 450 mg/day per os.
The traditional therapy was unsuccessful, and SCV-07 treatment was undertaken. Following a course of SCV-07 therapy at 0.1 mg daily for 5 days, bacterial intoxication resolved, destructive cavities closed and the sputum culture test was negative. CD3+ lymphocytes increased and tolerance to other drugs improved.

tuberculosis [2] = test: SCV-07 therapy with continued traditional antituberculosis therapy in a patient (Example 2); type: in vivo, human
From the text: A patient was admitted to the hospital with infiltrative tuberculosis, destructive phase in the upper lobe and 6th segment of the right lung and 4-5th segments of the left lung. Prior to SCV-07 therapy, symptoms of bacterial intoxication, dyspnea and rales above the damaged lobes were present. […] Large foci of lung destruction surrounded by perifocal inflammation were found in the lingual lobe of the left lung. […] During immunological response assays, a decrease of CD4+ and CD8+ subsets and low lymphocyte blasttransformation responses with PHA and PPD were detected.
After two months of traditional therapy a small improvement in the patient's condition was seen; however, the reoentgenological picture was without significant change and immune responses remained inhibited.
SCV-07 was injected intramuscularly at 0.1 mg, once per day, for 5 days with continued traditional antituberculosis therapy (isoniazid at 600 mg/day intravenously, pyrazinamid at 1500 mg/day per so, rifampicin at 450 mg/day per os, kanamycin at 1000 mg/day intramuscularly). The clinical improvement was significant. Sputum culture tests became negative, cavities closed and infiltrative foci resolved. […] A normal range is approximately 26-40%. […] Finally, the blasttransformation response with PHA increased from 29% to 40%. A normal level is approximately 50%.

blood leukocytes = type: in vivo, mice
IL-2 = IL-2 production by Con A stimulated spleen cells (CTLL-2 assay); type: in vivo, mice
Experimental: (§1) In RPMI-1640, spleen cells were diluted to a concentration of 10^7/ml with 10% fetal calf serum, 2 mM L-glutamine and 80 ìg/ml gentamycin. A 100 ìl cell suspension was added to each well of a 96-well culture plate and cytokine production was induced by Con A at a final concentration of 2.5 ìg/ml. A control well included RPMI-1640. For 24 hours, cells were incubated at 37° C. and humidified in 5% CO2. Following incubation, […] of supernatant was removed from each well and stored at −70° C.
In order to determine the IL-2 concentration in cell culture supernatants, the CTLL-2 IL-2 dependent cell line was used. CTLL-IL-2 cells were washed twice in RPMI-1640 and counted with a Goriaev hemocytometer. Supernatants were diluted in 96-well culture plates at dilutions of 1:5, 1:15, 1:45 and 1:135 in a volume of 100 il. IL-2 standard dilutions were also prepared. Cells were diluted to 2×10^5/ml in RPMI-1640 with 10% inactivated fetal calf serum, 2 mM L-glutamine, 80 ìg/ml gentamycin. The 100 ìl suspension was added to each well of the culture plate and incubated for 48 h at 37° C. in 5% CO2 humidity. Ten ìl of 5 i Ci/ml ^3H-thymidine was added to each well 16 h before the end of incubation. Following incubation, the cells were harvested on filters through the use of a semi-automated harvester and samples were counted in a liquid scintillation counter.

IL-4 and IFN-γ = test: IL-4 and INF-γ in spleen cell supernatants (Quantikine ELISA); type: in vivo, mice
Experimental: as §1
IL-4 and INF-γ assays in Con A-stimulated spleen cell supernatants were also performed using Quantikine™ ELIZA kits R & D Systems, Minneapolis, Minn.) in accordance with kit instructions. Plates were coated with monoclonal antibodies to either IL-4 or IFN-γ and blocked. Standards and samples were subsequently added. The cells were incubated for 2 h and washed, following with the addition of a colorimetric substrate. After 30 minutes, the reaction was terminated and plates were read at 450 nm using a plate reader (Multiscan™ 3550, BioRad, Japan).

[3] = SCV-07 im 0.1 mg once per day for 5 days with continued traditional therapy
[4] = 17 days after SCV-07 therapy, Groups 8 and 9 (0.01 ìg/kg ip and 1 ìg/kg po)

## N[C@H](CCC(=O)N[C@@H](Cc1c[nH]c2ccccc12)C(=O)O)C(=O)O [SCV-07, γ-D-glutamyl-L-tryptophan]
Tuberculosis [1]
  CD3+ lymphocytes: increased
  bacterial intoxication: resolved
  destructive cavities: closed
Tuberculosis [1]; from 84 U, normal level 22-66 U
  Immune complexes in circulation: 69 U
Tuberculosis [1]; traditional therapy was unsuccessful
  sputum culture test: negative
Tuberculosis [2]; [3]
  Immunological responses: close to normal
  Sputum culture tests: negative
  cavities: closed
  infiltrative foci: resolved
Tuberculosis [2]; SCV-07 intramuscularly 0.1 mg once per day for 5 days with continued traditional therapy
  clinical improvement: significant
Tuberculosis [2]; post SCV-07, increased from 1.011×10^9/l
  CD3+ lymphocytes: 1.441e+09 L⁻¹
Tuberculosis [2]; post SCV-07, increased from 12%, normal range approximately 26-40%
  CD8+ numbers: 21%
Tuberculosis [2]; post SCV-07, increased from 29%, normal level approximately 50%
  blasttransformation response with PHA: 40%
Tuberculosis [2]; post SCV-07 treatment
  Lymphocyte functional abilities: markedly elevated
Blood leukocytes; 4 days after therapy
  Significant changes in blood lymphocytes and neutrophilic granulocytes: not observed
Blood leukocytes; 10 days after therapy, Groups 6, 7, 8 and 9 compared with Group 3, the isoniazid control
  monocyte levels: decrease
Blood leukocytes; [4]
  lymphocyte numbers: increase
  percent of neutrophils: significant decrease
IL-2; 4 days after therapy, Group 7 (0.1 ìg/kg ip) compared to Group 3 (isoniazid control), Con A stimulated spleen cells
  IL-2 production: 41.6±5.6 U/ml
IL-2; 24 days after therapy, Group 6 (1 ìg/kg ip, 10 injections) and Group 7 (0.1 ìg/kg ip)
  IL-2 level: did not differ from uninfected mice
IL-2; all treated groups, all time points after therapy
  IL-2 production: increase
IL-4 and IFN-γ; 4 days after therapy, versus isoniazid control mice (Group 3)
  basal IFN-γ production: failed to differ
IL-4 and IFN-γ; 10 days after therapy, Groups 4, 5, 6 and 8
  Con A stimulated INF-γ production: stimulation
IL-4 and IFN-γ; 10 days after therapy, Groups 5, 6 and 7
  Con A stimulated IL-4 production: significantly decreased
IL-4 and IFN-γ; 17 days after therapy, all mice
  basal IFN-γ production: increase
IL-4 and IFN-γ; end of the experiment, only Group 6 (1 ìg/kg ip, 10 injections)
  basal INF-γ production: maintenance of this increase
IL-4 and IFN-γ; mouse, in vivo
  basal IL-4 production: No significant changes
IL-4 and IFN-γ; ten days after therapy, Groups 5, 6 and 7
  basal IFN-γ production: significant elevation
